The values that follow come from patent US4131620A, “Sulfamic acid halides and their manufacture” (BASF Aktiengesellschaft, priority 1976, dated 1978).

One test concerns crop plants. In words: herbicidal action, post-emergence treatment in a greenhouse, crop plants. The following applies: after one week. The test is classed as in vivo. As to the method:
(§1) A range of crop plants and of unwanted plants are treated in a greenhouse. The test plants, segregated according to species, are grown in plastic pots. When they have grown to from 2 to 15 cm, depending on the age and the habit of the species, emulsions of the end product I prepared in Example 10 are applied to the leaves by means of jets which produce a fine spray (post-emergence treatment). Water (300 liters per hectare) serves as the vehicle and dispersing medium. […] The results are rated on a scale of from 0 to 100, with O = no damage and 100 = complete destruction.

Another test relates to Ammannia coccinea. The test can be described thus: herbicidal action, post-emergence method, in a greenhouse. The test is classed as in vivo, Ammannia coccinea (redstem). The note with it: Amm. cocc., 0 = no damage, 100 = complete destruction. As to the method:
as §1

The test system of the next test is unwanted plants. The test can be described thus: herbicidal action, post-emergence treatment in a greenhouse, unwanted plants. The class given is in vivo. As to the method: as §1
The subject of a further test is Avena sativa. The test can be described thus: herbicidal action, post-emergence method, in a greenhouse. The following applies: Avena sat., 3 kg/ha of active ingredient (footnote +), 0 = no damage, 100 = complete destruction. The test is classed as in vivo, Avena sativa (oats). As to the method:
as §1

A further test concerns Glycine max. The test is described as above. The following applies: Glyc. max, 0 = no damage, 100 = complete destruction. The test is classed as in vivo, Glycine max (soy beans). As to the method: as §1
The next test concerns Sinapis alba. The description is as above. The test is classed as in vivo, Sinapis alba (white mustard). The following applies: Sin. alba, 3 kg/ha of active ingredient (footnote +), 0 = no damage, 100 = complete destruction. As to the method:
as §1

Another test relates to Oryza sativa. The description is as above. The test is classed as in vivo, Oryza sativa (rice). The following applies: Oryz. sat., 0 = no damage, 100 = complete destruction. As to the method: (§2) A range of crop plants and of unwanted plants are treated in a greenhouse. The test plants, segregated according to species, are grown in plastic pots. […] Water (300 liters per hectare) serves as the vehicle and dispersing medium. […] The results are rated on a scale of from 0 to 100, with O = no damage and 100 = complete destruction.

In the next test the test system is Ipomoea spp. The test is described as above. The test is classed as in vivo, Ipomoea spp. (morning glory). The note with it: Ipom. spp., 0 = no damage, 100 = complete destruction. As to the method: as §2
A further test concerns Sesbania exaltata. Described as above. The test is classed as in vivo, Sesbania exaltata (hemp sesbania (coffeeweed)). The note with it: Sesb. exalt., 0 = no damage, 100 = complete destruction. As to the method: as §1
A further test relates to Sida spinosa. The test is described as above. The test is classed as in vivo, Sida spinosa (teaweed (pricly sida)). The note with it: Sida spin., 0 = no damage, 100 = complete destruction. As to the method:
as §2

The next test relates to Ludwigia spp. The test is described as above. The test is classed as in vivo. The note with it: Ludw. spp., 0 = no damage, 100 = complete destruction. As to the method:
as §2

The test system of another test is Cyperus esculentus. The description is as above. The test is classed as in vivo, Cyperus esculentus (yellow nutsedge). The note with it: Cyp. esc., 0 = no damage, 100 = complete destruction. As to the method: as §2
The test system of the next test is Amaranthus retroflexus. The test is described as above. The class given is in vivo, Amaranthus retroflexus (pigweed). The following applies: Amar. retr., 0 = no damage, 100 = complete destruction. As to the method: as §2

Take `CCN(COC)S(=O)(=O)N1c2ccccc2C(=O)N(C(C)C)S1(=O)=O` [Example 10, 3-isopropyl-1-N'-methoxymethyl-N'-ethylsulfamoyl-2,1,3-benzothiadiazin-4-one-2,2-dioxide]: the “damage to crop plants (in words)” value in the test with crop plants was “very little or no attach”. Also, the “% damage” value in the test on Ammannia coccinea (2.0 kg/ha of active ingredient) is recorded as 50%; with Ammannia coccinea (4.0 kg/ha of active ingredient), 60%; in the test with Avena sativa it was 0%; in the test with Glycine max (2.0 kg/ha of active ingredient), 5%; in the test with Glycine max (4.0 kg/ha of active ingredient), 15%; in the test with Sinapis alba, 100%. The “% damage” value in the test with Oryza sativa (2.0 kg/ha of active ingredient) amounted to 0%; in the test with Oryza sativa (4.0 kg/ha of active ingredient), 0%; in the test with Ipomoea spp. (2.0 kg/ha of active ingredient) it was 50%; with Ipomoea spp. (4.0 kg/ha of active ingredient), 90%; in the test on Sesbania exaltata (2.0 kg/ha of active ingredient), 50%; with Sesbania exaltata (4.0 kg/ha of active ingredient) it was 60%. Further, the “% damage” value is 95% in the test on Sida spinosa (2.0 kg/ha of active ingredient); 95% in the test with Sida spinosa (4.0 kg/ha of active ingredient); 50% in the test with Ludwigia spp. (2.0 kg/ha of active ingredient); 75% in the test with Ludwigia spp. (4.0 kg/ha of active ingredient); 60% in the test with Cyperus esculentus (2.0 kg/ha of active ingredient); 70% in the test with Cyperus esculentus (4.0 kg/ha of active ingredient). Also, the “% damage” value with Amaranthus retroflexus (2.0 kg/ha of active ingredient) and in the test with Amaranthus retroflexus (4.0 kg/ha of active ingredient) was 60% each time. In addition, in the test with unwanted plants, the “onset of action (in words)” value is “The action sets in rapidly”. Moreover, the “damage to unwanted plants (in words)” value with unwanted plants (after one week) is “dying”.
